What was measured:
Assay type in all cases: functional, cell-based
[1] = system: SW480; experiment: Cytotoxicity against human SW480 cells after 48 hrs by MTT assay; details: SW480, 48 h
[2] = system: A549; experiment: Cytotoxicity against human A549 cells after 48 hrs by MTT assay; details: A549, 48 h
[3] = system: MCF7; experiment: Cytotoxicity against human MCF7 cells after 48 hrs by MTT assay; details: MCF7, 48 h
[4] = system: SMMC-7721; experiment: Cytotoxicity against human SMMC7721 cells after 48 hrs by MTT assay; details: SMMC-7721, 48 h
[5] = system: HL-60; experiment: Cytotoxicity against human HL60 cells after 48 hrs by MTT assay; details: HL-60, 48 h

C=C[C@]1(C)C=C2CC[C@H]3C(C)(C)[C@@H](O)CC[C@]3(C)[C@H]2[C@H](O)C1
IC50 [1]: > 40 µM
IC50 [2]: > 40 µM
IC50 [3]: > 40 µM
IC50 [4]: > 40 µM
IC50 [5]: > 40 µM

C=CC(=C)CC[C@@H]1[C@@]2(C)CCC[C@](C)(COC(=O)/C=C/c3ccc(O)c(OC)c3)[C@@H]2CC[C@@]1(C)O
IC50 [1]: 16.9 µM
IC50 [2]: 16.8 µM
IC50 [3]: 13.5 µM
IC50 [4]: 14.1 µM
IC50 [5]: 14.3 µM

CC(C)c1cc2c(cc1O)[C@@]1(CO)CCCC(C)(C)[C@@H]1CC2 [PISIFEROL]
IC50 [1]: > 40 µM
IC50 [2]: > 40 µM
IC50 [3]: > 40 µM
IC50 [4]: > 40 µM
IC50 [5]: > 40 µM

C=C[C@]1(C)O[C@H]1C[C@H]1C(=C)CC[C@@H]2[C@]1(C)CCC[C@]2(C)C(=O)O
IC50 [1]: > 40 µM
IC50 [2]: > 40 µM
IC50 [3]: > 40 µM
IC50 [4]: > 40 µM
IC50 [5]: > 40 µM

C=C[C@]1(C)C=C2CC[C@H]3[C@](C)(COC(C)=O)CCC[C@]3(C)[C@H]2[C@H](O)C1
IC50 [1]: > 40 µM
IC50 [2]: > 40 µM
IC50 [3]: > 40 µM
IC50 [4]: > 40 µM
IC50 [5]: > 40 µM

C=C[C@@]1(C)O[C@H]1C[C@H]1C(=C)CC[C@@H]2[C@]1(C)CCC[C@]2(C)C(=O)O
IC50 [1]: > 40 µM
IC50 [2]: > 40 µM
IC50 [3]: > 40 µM
IC50 [4]: > 40 µM
IC50 [5]: > 40 µM

C=C[C@@](C)(O)CC[C@H]1C(=C)CC[C@@H]2[C@]1(C)CCC[C@]2(C)C(=O)O
IC50 [1]: > 40 µM
IC50 [2]: > 40 µM
IC50 [3]: > 40 µM
IC50 [4]: > 40 µM
IC50 [5]: > 40 µM

C=C[C@@]1(C)C=C[C@H]2C(=C1)[C@H](O)C[C@H]1[C@](C)(CO)CCC[C@]21C
IC50 [1]: > 40 µM
IC50 [2]: > 40 µM
IC50 [3]: > 40 µM
IC50 [4]: > 40 µM
IC50 [5]: > 40 µM

CC(C)C1=C[C@]2(O)CC[C@H]3C(C)(C)CCC[C@]3(O)CC2=CC1=O
IC50 [1]: > 40 µM
IC50 [2]: > 40 µM
IC50 [3]: > 40 µM
IC50 [4]: > 40 µM
IC50 [5]: > 40 µM

C=C/C(C)=C/C[C@H]1C(=C)CC[C@@H]2[C@]1(C)CCC[C@]2(C)C=O
IC50 [1]: > 40 µM
IC50 [2]: > 40 µM
IC50 [3]: > 40 µM
IC50 [4]: > 40 µM
IC50 [5]: > 40 µM

C=CC(=C)[C@H](O)C[C@H]1C(=C)CC[C@@H]2[C@]1(C)CCC[C@]2(C)C(=O)O
IC50 [1]: > 40 µM
IC50 [2]: > 40 µM
IC50 [3]: > 40 µM
IC50 [4]: > 40 µM
IC50 [5]: > 40 µM

C=C1CC[C@@H]2[C@](C)(CCC[C@]2(C)C(=O)O)[C@H]1C/C=C(\C)C=O
IC50 [1]: > 40 µM
IC50 [2]: > 40 µM
IC50 [3]: > 40 µM
IC50 [4]: > 40 µM
IC50 [5]: > 40 µM

CC(C)c1cc2c(cc1O)[C@@]1(CO)CCCC(C)(C)[C@H]1CC2
IC50 [1]: 15.1 µM
IC50 [2]: 20.7 µM
IC50 [3]: 15 µM
IC50 [4]: 15.2 µM
IC50 [5]: 15.5 µM

C=CC(=C)[C@@H](O)C[C@H]1C(=C)CC[C@@H]2[C@]1(C)CCC[C@]2(C)C(=O)O
IC50 [1]: > 40 µM
IC50 [2]: > 40 µM
IC50 [3]: > 40 µM
IC50 [4]: > 40 µM
IC50 [5]: > 40 µM
